From ChEMBL document CHEMBL1127904, “D-amino acids as novel P2/P3 ligands for inhibitors of HIV-1 protease” (Bioorg Med Chem Lett, 1994)

Key:
[1] = biological target: Human immunodeficiency virus type 1 protease (Human immunodeficiency virus 1, UniProt Q72874); assay: Concentration required for in vitro inhibitory activity against HIV-1 protease
MT2 = assay: Concentration required for in vitro antiviral activity against HIV-1 virus infected MT2 cells; assay type: functional, cell-based; settings: Homo sapiens
CCRF-CEM = assay: Concentration required for in vitro antiviral activity against HIV-1 virus infected CEM cells; assay type: functional, cell-based; settings: Homo sapiens

SMILES | IC50 [1] [nM] | IC50 (MT2) [nM] | IC50 (CCRF-CEM) [nM]
CC(=O)N[C@@H](CC(=O)OCc1ccccc1)C(=O)N[C@@H](Cc1ccccc1)[C@H](O)Cc1ccccc1C(=O)NC(C)(C)C | 85 |  | 
CC(=O)N[C@H](CC(=O)OCc1ccccc1)C(=O)N[C@@H](Cc1ccccc1)[C@H](O)Cc1ccccc1C(=O)NC(C)(C)C | > 1000 |  | 
CC(C)(C)NC(=O)c1ccccc1C[C@@H](O)[C@H](Cc1ccccc1)NC(=O)[C@H](CC(=O)OCc1ccccc1)NC(N)=O | 51 | 11900 | 22400
CC(=O)N[C@@H](CS(=O)(=O)c1ccc2ccccc2n1)C(=O)N[C@@H](Cc1ccccc1)[C@H](O)Cc1ccccc1C(=O)NC(C)(C)C | 0.3 | 180 | 53
CC(=O)N[C@@H](CSCc1ccccc1)C(=O)N[C@@H](Cc1ccccc1)[C@H](O)Cc1ccccc1C(=O)NC(C)(C)C | 45 | 3120 | 2910
CC(=O)N[C@H](CS(=O)(=O)c1ccc2ccccc2c1)C(=O)N[C@@H](Cc1ccccc1)[C@H](O)Cc1ccccc1C(=O)NC(C)(C)C | 0.3 | 31 | 11
CC(C)(C)NC(=O)c1ccccc1C[C@@H](O)[C@H](Cc1ccccc1)NC(=O)[C@@H](CC(=O)OCc1ccccc1)NS(C)(=O)=O | > 1000 |  | 
CC(=O)N[C@H](CSCc1ccccc1)C(=O)N[C@@H](Cc1ccccc1)[C@H](O)Cc1ccccc1C(=O)NC(C)(C)C | > 1000 |  | 
CC(C)(C)NC(=O)c1ccccc1C[C@@H](O)[C@H](Cc1ccccc1)NC(=O)[C@H](CC(=O)NCc1ccc2ccccc2n1)NS(C)(=O)=O | 8 | 1440 | 580
CC(=O)N[C@@H](CSc1ccc2ccccc2c1)C(=O)N[C@@H](Cc1ccccc1)[C@H](O)Cc1ccccc1C(=O)NC(C)(C)C | 42 | 1000 | 1130
CC(C)(C)NC(=O)c1ccccc1C[C@@H](O)[C@H](Cc1ccccc1)NC(=O)[C@H](CC(=O)OCc1ccccc1)NS(C)(=O)=O | 5.4 | 1270 | 1090
CC(C)(C)NC(=O)c1ccccc1C[C@@H](O)[C@H](Cc1ccccc1)NC(=O)C(CC(N)=O)NC(=O)c1ccc2ccccc2n1 (single isomer, unassigned) |  |  | 23
